Here are results for one compound from paper PMC5384001 (Scientific Reports, 2017).

The target of the assay is T1, GluD2-Lc(Y770F) (Rattus norvegicus, UniProt Q63226, A654T/Y770F).
T1 construct: the function of full-length receptors as well, we introduced them into the GluD2 lurcher mutant (GluD2-Lc); expressed in transfected cells; host or cells: Xenopus laevis oocytes injected with cRNA
T1 sequence (Q63226 24-1007 A654T/Y770F): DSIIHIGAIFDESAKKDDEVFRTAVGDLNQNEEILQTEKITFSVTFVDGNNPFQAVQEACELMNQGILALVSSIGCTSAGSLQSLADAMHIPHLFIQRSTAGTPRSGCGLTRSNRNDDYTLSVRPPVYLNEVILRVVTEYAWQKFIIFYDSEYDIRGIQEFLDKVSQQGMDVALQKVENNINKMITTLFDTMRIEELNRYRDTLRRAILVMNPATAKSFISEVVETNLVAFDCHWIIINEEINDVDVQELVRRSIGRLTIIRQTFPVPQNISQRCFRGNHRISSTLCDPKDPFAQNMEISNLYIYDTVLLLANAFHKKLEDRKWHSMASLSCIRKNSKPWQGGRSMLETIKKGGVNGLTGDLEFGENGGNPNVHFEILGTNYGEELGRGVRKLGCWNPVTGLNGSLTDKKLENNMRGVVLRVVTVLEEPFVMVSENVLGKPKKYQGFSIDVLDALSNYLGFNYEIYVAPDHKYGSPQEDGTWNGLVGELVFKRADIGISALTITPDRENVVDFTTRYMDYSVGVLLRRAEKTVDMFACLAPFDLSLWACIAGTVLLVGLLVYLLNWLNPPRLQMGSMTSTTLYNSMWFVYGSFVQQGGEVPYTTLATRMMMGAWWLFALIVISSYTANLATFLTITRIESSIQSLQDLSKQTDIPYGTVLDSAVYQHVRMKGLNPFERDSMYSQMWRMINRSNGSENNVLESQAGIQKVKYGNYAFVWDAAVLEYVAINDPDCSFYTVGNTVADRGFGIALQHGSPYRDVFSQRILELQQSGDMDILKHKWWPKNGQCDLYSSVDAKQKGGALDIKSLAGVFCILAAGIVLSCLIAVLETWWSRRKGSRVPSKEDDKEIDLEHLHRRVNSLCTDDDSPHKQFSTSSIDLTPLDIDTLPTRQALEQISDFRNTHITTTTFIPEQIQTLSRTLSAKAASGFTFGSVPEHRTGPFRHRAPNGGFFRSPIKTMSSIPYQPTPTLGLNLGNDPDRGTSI
As to the kind of experiment: Two-electrode voltage clamp in Xenopus oocytes, inhibition of spontaneous currents. The note with it: fraction of spontaneous current inhibited by saturating D-serine. The class given is cell-based. (In general: Two-electrode voltage clamp holds a large cell at a set potential and records current.)

With `N[C@H](CO)C(=O)O` [D-serine], the “D-serine efficacy Mean ± SEM” value was 59.9 ± 1.7%.
